# Laboratory results: patent US20120183524A1, “MOLECULAR TARGETS FOR TREATMENT OF INFLAMMATION” (University Of Rochester, priority 2007, published 2012)
# Non-standard residues stand in square brackets, D forms with d. Residues, ends and D or L forms follow the SMILES beside them. Nle = CCCC[C@H](N)C(=O)O
# Tested on: RelB
# Experiment: RelB, IKKα, NIK and RelA/p65 levels by western blotting in CSE-treated Ramos B-cells
# Type: cell-based, human
# Settings: B-cells pretreated with ALLN 25 μM for 20 min, then CSE 0.5% and 1.0% for 1 h; whole cell lysates, immunoblotting
# Method: MonoMac6-, Ramos B- and WEHI-231-cells were seeded at a density of less than 1×10^6 cells/well (total final volume=2 ml), grown to ˜80-90% confluency in six-well plates containing RPMI 1640 medium with 10% FBS, washed in Ca2+- and Mg2+-free PBS, and then exposed to various treatments in media containing 1% serum. All treatments were performed in duplicate. The cells were treated with CSE (0.5, 1.0 and 5%) for 1 h at 37° C. with 7.5% CO2. At the end of treatment, the cells were washed with cold, sterile Ca2+- and Mg2+-free PBS and were lysed in RIPA buffer as whole lysate (western blotting), and the lysates stored at −80° C. […]
# Lung tissue homogenate samples (cytoplasmic and nuclear proteins) were separated on a 7.5%-12% SDS-PAGE. […] The next day, membranes were washed and incubated for 1 h at room temperature with the appropriate secondary antibody linked to horseradish peroxidase (Dako, Santa Barbara, Calif.), bound complexes were detected with the use of the enhanced chemiluminescence method (Jackson Immunology Research, West Grove, Pa.).
smiles,measurement,value
CCCC[C@@H](C=O)NC(=O)[C@H](CC(C)C)NC(=O)[C@H](CC(C)C)NC(C)=O [ALLN] (Ac-Leu-Leu-[Nle]-aldehyde),degradation of RelB in response to CSE,prevented the degradation of RelB
